With `NC(=O)[C@H](Cc1ccccc1)C[C@H](O)[C@H](Cc1ccccc1)NC(=O)c1cnc2c(F)cccc2c1` [Example 285, 8-Fluoro-quinoline-3-carboxylic acid (1(S)-benzyl-4(R)-carbamoyl-2(S)-hydroxy-5-phenyl-pentyl)-amide], the melting point (in general, the temperature of the solid-liquid transition) is 206 to 209 °C. In the case of `COc1cc(CCNC(=O)[C@H](CCC(C)(C)F)C[C@H](O)[C@H](Cc2ccccc2)NC(=O)c2cnc3ccccc3n2)cc(OC)c1` [Example 232, Quinoxaline-2-carboxylic acid {1(S)-benzyl-4(R)-[2-(3,5-dimethoxy-phenyl)-ethylcarbamoyl]-7-fluoro-2(S)-hydroxy-7-methyl-octyl}-amide], the melting point lay within 109 to 112 °C. In the case of `NC(=O)[C@H](Cc1ccccc1)C[C@H](O)[C@H](Cc1ccccc1)NC(=O)c1cnc2ccccc2c1` [Example 287, Quinoline-3-carboxylic acid (1(S)-benzyl-4(R)-carbamoyl-2(S)-hydroxy-5-phenyl-pentyl)-amide], the melting point fell in the range of 203 to 206 °C. The figure for `CC1(C)CC([C@H](C[C@H](O)[C@H](Cc2ccccc2)NC(=O)c2cnc3ccccc3n2)C(N)=O)CC(C)(C)C1` [Example 179, Quinoxaline-2-carboxylic acid [1(S)-benzyl-4(S)-carbamoyl-2(S)-hydroxy-4-(3,3,5,5-tetramethyl-cyclohexyl)-butyl]-amide] is 188 to 190 °C. Compound `CC1CCC(O)([C@H](C[C@H](O)[C@H](Cc2ccccc2)NC(=O)c2cnc3ccccc3n2)C(N)=O)C1` (stereo partly drawn) [Example 282, Quinoxaline-2-carboxylic acid [1(S)-benzyl-4(S)-carbamoyl-2(S)-hydroxy-4-(1-hydroxy-3-methyl-cyclopentyl)-butyl]-amide] yielded a melting point of 187 to 188 °C.

In turn, `CC(C)(F)CC[C@H](C[C@H](O)[C@H](Cc1ccccc1)NC(=O)c1cnc2ccccc2n1)C(=O)NCc1ccncc1` [Example 217, Quinoxaline-2-carboxylic acid {1(S)-benzyl-7-fluoro-2(S)-hydroxy-7-methyl-4(R)-[(pyridin-4-ylmethyl)-carbamoyl]-octyl}-amide] registered a melting point of 100 to 104 °C. `Cc1ccccc1C[C@H](C[C@H](O)[C@H](Cc1ccccc1)NC(=O)c1cnc2ccccc2n1)C(N)=O` [Example 275, Quinoxaline-2-carboxylic acid (1(S)-benzyl-4(R)-carbamoyl-2(S)-hydroxy-5-o-tolyl-pentyl)-amide] displayed a melting point of 168 to 171 °C. Then `NC(=O)[C@@H](C[C@H](O)[C@H](Cc1ccccc1)NC(=O)c1cnc2ccccc2n1)C1CCCC1` [Example 171, Quinoxaline-2-carboxylic acid (1(S)-benzyl-4-carbamoyl-4(S)-cyclopentyl-2(S)-hydroxy-butyl)-amide], with 126 to 128 °C.

For the compound `CC(C)(O)CC[C@H](C[C@H](O)[C@H](Cc1ccc(F)c(F)c1)NC(=O)c1cnc2ccccc2n1)C(N)=O` [Example 323, Quinoxaline-2-carboxylic acid [4(R)-carbamoyl-1(S)-(3,4-difluoro-benzyl)-2(S),7-dihydroxy-7-methyl-octyl]-amide], the melting point fell in the range of 110 to 120 °C. Then `NC(=O)[C@@H](C[C@H](O)[C@H](Cc1ccccc1)NC(=O)c1cnc2ccccc2n1)C1CCCCC1` [Example 169, Quinoxaline-2-carboxylic acid (1(S)-benzyl-4-carbamoyl-4(S)-cyclohexyl-2(S)-hydroxy-butyl)-amide], with 178 to 180 °C; and `O=C(N[C@@H](Cc1ccccc1)[C@@H](O)C[C@H](C(=O)NO)C1(O)CCCCCC1)c1cnc2ccccc2n1` [Example 291, Quinoxaline-2-carboxylic acid [1(S)-benzyl-2(S)-hydroxy-4(S)-hydroxycarbamoyl-4-(1-hydroxy-cycloheptyl)-butyl]-amide], with 118 to 119 °C; and `CNC(=O)[C@H](CC(C)C)C[C@H](O)[C@H](Cc1ccc2ccccc2c1)NC(=O)c1cnc2ccccc2n1` [Example 127, Quinoxaline-2-carboxylic acid (2(S)-hydroxy-6-methyl-4(R)-methylcarbamoyl-1(S)-naphthalen-2-ylmethyl-heptyl)-amide], with 121 to 123 °C.

Regarding `CC(C)(F)CC[C@H](C[C@H](O)[C@H](Cc1ccccc1)NC(=O)c1cnc2ccccc2n1)C(=O)NCCc1ccncc1` [Example 221, Quinoxaline-2-carboxylic acid [1(S)-benzyl-7-fluoro-2(S)-hydroxy-7-methyl-4(R)-(2-pyridin-4-yl-ethylcarbamoyl)-octyl]-amide], the melting point is 78 to 80 °C. The figure for `NC(=O)[C@@H](C[C@H](O)[C@H](Cc1ccccc1)NC(=O)c1cnc2ccccc2n1)C1(O)CCC(C(F)(F)F)CC1` (stereo partly drawn) [Example 308, Quinoxaline-2-carboxylic acid [1(S)-benzyl-4(S)-carbamoyl-2(S)-hydroxy-4-(1-hydroxy-4-trifluoromethyl-cyclohexyl)-butyl]-amide] is 250 to 252 °C; for `CNC(=O)[C@H](CC(C)C)C[C@H](O)[C@H](Cc1ccc(OS(=O)(=O)C(F)(F)F)cc1)NC(=O)c1cnc2ccccc2c1` [Example 50, Trifluoro-methanesulfonic acid 4-{3(S)-hydroxy-7-methyl-5(R)-methylcarbamoyl-2(S)-[(quinoline-3-carbonyl)-amino]-octyl}-phenyl ester] it is 168 to 170 °C. The figure for `NC(=O)[C@@H](C[C@H](O)[C@H](Cc1ccccc1)NC(=O)c1ccc2ccccc2n1)C1CCCCC1` [Example 262, Quinoline-2-carboxylic acid (1(S)-benzyl-4(S)-carbamoyl-4-cyclohexyl-2(S)-hydroxy-butyl)-amide] is 208 to 210 °C; for `COc1ccc(CNC(=O)[C@H](CCC(C)(C)F)C[C@H](O)[C@H](Cc2ccccc2)NC(=O)c2cnc3ccccc3n2)cc1OC` [Example 206, Quinoxaline-2-carboxylic acid [1(S)-benzyl-4(R)-(3,4-dimethoxy-benzylcarbamoyl)-7-fluoro-2(S)-hydroxy-7-methyl-octyl]-amide] it is 162 to 164 °C; for `CC(C)(F)CC[C@H](C[C@H](O)[C@H](Cc1ccccc1)NC(=O)c1cnc2ccccc2n1)C(=O)NCCc1ccc(S(N)(=O)=O)cc1` [Example 216, Quinoxaline-2-carboxylic acid {1(S)-benzyl-7-fluoro-2(S)-hydroxy-7-methyl-4(R)-[2-(4-sulfamoyl-phenyl)-ethylcarbamoyl]-octyl}-amide] it is 207 to 210 °C. Then `CNC(=O)[C@H](CC1CCCCC1)C[C@H](O)[C@H](CC1CCCCC1)NC(=O)c1cnc2ccccc2c1` [Example 21, Quinoline-3-carboxylic acid (5-cyclohexyl-1(S)-cyclohexylmethyl-2(S)-hydroxy-4(R)-methylcarbamoyl-pentyl)-amide], with 170.5 to 172.5 °C; and `CNC(=O)[C@H](CC(C)C)C[C@H](O)[C@H](Cc1ccc(O)cc1)NC(=O)c1cnc2ccccc2c1` [Example 44, Quinoline-3-carboxylic acid [2(S)-hydroxy-1(S)-(4-hydroxy-benzyl)-6-methyl-4(R)-methylcarbamoyl-heptyl]-amide], with 220.5 to 222.5 °C. As to `NC(=O)[C@@H](C[C@H](O)[C@H](Cc1ccccc1)NC(=O)c1cnc2ccccc2n1)C1(O)CCCC1` [Example 277, Quinoxaline-2-carboxylic acid [1(S)-benzyl-4(S)-carbamoyl-2(S)-hydroxy-4-(1-hydroxy-cyclopentyl)-butyl]-amide], the melting point fell in the range of 192 to 195 °C. Then `NC(=O)[C@@H](C[C@H](O)[C@H](Cc1ccccc1)NC(=O)c1cnc2ccccc2n1)C1(O)C2CC3CC(C2)CC1C3` (stereo partly drawn) [Example 295, Quinoxaline-2-carboxylic acid [1(S)-benzyl-4(S)-carbamoyl-2(S)-hydroxy-4-(2-hydroxy-adamantan-2-yl)-butyl]-amide], with 206 to 207 °C. The compound `CCSCCNC(=O)[C@H](CCC(C)(C)F)C[C@H](O)[C@H](Cc1ccccc1)NC(=O)c1cnc2ccccc2n1` [Example 218, Quinoxaline-2-carboxylic acid [1(S)-benzyl-4(R)-(2-ethylsulfanyl-ethylcarbamoyl)-7-fluoro-2(S)-hydroxy-7-methyl-octyl]-amide] had a melting point of 78 to 79 °C. Then `O=C(N[C@@H](Cc1ccccc1)[C@@H](O)C[C@H](C(=O)NO)C1(O)CCCC1)c1cnc2ccccc2n1` [Example 281, Quinoxaline-2-carboxylic acid [1(S)-benzyl-2(S)-hydroxy-4(S)-hydroxycarbamoyl-4-(1-hydroxy-cyclopentyl)-butyl]-amide], with 110 to 112 °C. Then `NC(=O)[C@H](Cc1ccccc1Cl)C[C@H](O)[C@H](Cc1ccccc1)NC(=O)c1cnc2ccccc2n1` [Example 274, Quinoxaline-2-carboxylic acid [1(S)-benzyl-4(R)-carbamoyl-5-(2-chloro-phenyl)-2(S)-hydroxy-pentyl]-amide], with 182 to 185 °C; and `COc1ccc(CNC(=O)[C@H](CCC(C)(C)F)C[C@H](O)[C@H](Cc2ccccc2)NC(=O)c2cnc3ccccc3n2)cc1` [Example 236, Quinoxaline-2-carboxylic acid [1(S)-benzyl-7-fluoro-2(S)-hydroxy-4(R)-(4-methoxy-benzylcarbamoyl)-7-methyl-octyl]-amide], with 114 to 115 °C; and `CNC(=O)[C@H](CC(C)C)C[C@H](O)[C@H](Cc1ccc(OCc2ccccc2)cc1)NC(=O)c1cnc2ccccc2n1` [Example 39, Quinoxaline-2-carboxylic acid [1(S)-(4-benzyloxy-benzyl)-2(S)-hydroxy-6-methyl-4(R)-methylcarbamoyl-heptyl]-amide], with 196 to 197 °C. The figure for `CC(C)(F)CC[C@H](C[C@H](O)[C@H](Cc1ccccc1)NC(=O)c1cnc2ccccc2n1)C(=O)NCc1ccco1` [Example 234, Quinoxaline-2-carboxylic acid {1(S)-benzyl-7-fluoro-4(R)-[(furan-2-ylmethyl)-carbamoyl]-2(S)-hydroxy-7-methyl-octyl}-amide] is 155.5 to 156.5 °C.

The values are drawn from patent US20040087571A1, “Methods of using CCR1 antagonists as immunomodulatory agents” (Pfizer Inc, priority 2002, published 2004).
